Assay results from patent US9302999B2, “Substituted triazoles as herbicides” (E. I. DU PONT DE NEMOURS AND COMPANY, priority 2012, dated 2016).

What was measured:
Format in all cases: in vivo
[1] = tested on: barnyardgrass (Echinochloa crus-galli); experiment: Test C flooded paddy test: barnyardgrass; conditions: scale 0 to 100 (0 no effect, 100 complete control)
Outline: (§1)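 Greenhouse plants treated at the 2-leaf stage by dosing the flood water (3 cm depth, maintained) were compared with controls after 13 to 15 days and rated 0 to 100, where 100 means complete control; a dash marks no test result.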

corn (Zea mays) = experiment: Test A pre-/postemergence: corn; conditions: for Corn plant response rating: Postemergence; for Plant response rating, Corn: Preemergence
Outline: (§2)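 Rating scale 0–100 (100 = complete control), visual, ~10 days after application in the greenhouse. Applications: preemergence directed soil spray; postemergence at 1–2 leaves.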

rice (Oryza sativa) = experiment: Test C flooded paddy test: rice; conditions: scale 0 to 100 (0 no effect, 100 complete control)
Outline: as §1

[2] = tested on: crabgrass, large (large crabgrass, Digitaria sanguinalis); experiment: Test A pre-/postemergence: crabgrass, large; conditions: for Crabgrass, Large plant response rating: Postemergence; for Plant response rating, Crabgrass, Large: Preemergence
Outline: as §2

[3] = tested on: sedge, umbrella (small-flower umbrella sedge, Cyperus difformis); experiment: Test C flooded paddy test: sedge, umbrella; conditions: scale 0 to 100 (0 no effect, 100 complete control)
Outline: as §1

[4] = tested on: morningglory (Ipomoea spp.); experiment: Test A pre-/postemergence: morningglory; conditions: for Morningglory plant response rating: Postemergence; for Plant response rating, Morningglory: Preemergence
Outline: as §2

[5] = tested on: ducksalad (Heteranthera limosa); experiment: Test C flooded paddy test: ducksalad; conditions: scale 0 to 100 (0 no effect, 100 complete control)
Outline: as §1

[6] = tested on: pigweed (Amaranthus retroflexus); experiment: Test A pre-/postemergence: pigweed; conditions: for Pigweed plant response rating: Postemergence; for Plant response rating, Pigweed: Preemergence
Outline: as §2

[7] = tested on: wheat (Triticum aestivum); experiment: Test A pre-/postemergence: wheat; conditions: for Wheat plant response rating: Postemergence; for Plant response rating, Wheat: Preemergence
Outline: as §2

[8] = tested on: velvetleaf (Abutilon theophrasti); experiment: Test A pre-/postemergence: velvetleaf; conditions: for Velvetleaf plant response rating: Postemergence; for Plant response rating, Velvetleaf: Preemergence
Outline: as §2

[9] = tested on: barnyardgrass (Echinochloa crus-galli); experiment: Test A pre-/postemergence: barnyardgrass; conditions: for Barnyardgrass plant response rating: Postemergence; for Plant response rating, Barnyardgrass: Preemergence
Outline: as §2

[10] = tested on: foxtail, giant (giant foxtail, Setaria faberii); experiment: Test A pre-/postemergence: foxtail, giant; conditions: for Foxtail, Giant plant response rating: Postemergence; for Plant response rating, Foxtail, Giant: Preemergence
Outline: as §2

[11] = Flood (flooded paddy test), 62 g ai/ha, visual rating after 13 to 15 days
[12] = Flood (flooded paddy test), 125 g ai/ha, visual rating after 13 to 15 days
[13] = Flood (flooded paddy test), 250 g ai/ha, visual rating after 13 to 15 days
[14] = 125 g ai/ha, 0 to 100 scale, 0 is no effect, 100 is complete control
[15] = 500 g ai/ha, visual rating on 0 to 100 scale (0 no effect, 100 complete control), approximately ten days
[16] = 125 g ai/ha, 0 to 100 scale (0 no effect, 100 complete control)
[17] = 500 g ai/ha, 0 to 100 scale, 0 is no effect, 100 is complete control

COc1nn(-c2ccc(C(F)(F)F)cc2)nc1Cc1cccc(C(F)(F)F)c1 [Compound 29]
90: Crabgrass, Large plant response rating [2, 14] | Crabgrass, Large plant response rating [2, 15] | Plant response rating, Crabgrass, Large [2, 16] | Plant response rating, Pigweed [6, 17] | Foxtail, Giant plant response rating [10, 15]
10: Plant response rating, Morningglory [4, 17] | Plant response rating, Barnyardgrass [9, 16]
20: Plant response rating, Barnyardgrass [1, 13] | Corn plant response rating (corn (Zea mays); [14]) | Corn plant response rating (corn (Zea mays); [15]) | Barnyardgrass plant response rating [9, 14]
40: Barnyardgrass plant response rating [9, 15]
75: Plant response rating, Sedge, Umbrella [3, 13]
50: Plant response rating, Sedge, Umbrella ([3]; Flood, 31 g ai/ha) | Plant response rating, Pigweed [6, 16] | Plant response rating, Velvetleaf [8, 17] | Plant response rating, Barnyardgrass [9, 17]
30: Wheat plant response rating [7, 15]
60: Plant response rating, Sedge, Umbrella [3, 11] | Velvetleaf plant response rating [8, 14] | Foxtail, Giant plant response rating [10, 14]
100: Plant response rating, Crabgrass, Large [2, 17] | Morningglory plant response rating [4, 15] | Pigweed plant response rating [6, 14] | Pigweed plant response rating [6, 15] | Plant response rating, Foxtail, Giant [10, 17]
80: Morningglory plant response rating [4, 14] | Velvetleaf plant response rating [8, 15] | Plant response rating, Foxtail, Giant [10, 16]
70: Plant response rating, Sedge, Umbrella [3, 12]
0: Plant response rating, Barnyardgrass [1, 11] | Plant response rating, Barnyardgrass [1, 12] | Plant response rating, Barnyardgrass ([1]; Flood, 31 g ai/ha) | Plant response rating, Corn (corn (Zea mays); [16]) | Plant response rating, Corn (corn (Zea mays); [17]) | Plant response rating, Rice (rice (Oryza sativa); [11]) | Plant response rating, Rice (rice (Oryza sativa); [12]) | Plant response rating, Rice (rice (Oryza sativa); [13]) | Plant response rating, Rice (rice (Oryza sativa); Flood, 31 g ai/ha) | Plant response rating, Morningglory [4, 16] | Plant response rating, Ducksalad [5, 11] | Plant response rating, Ducksalad [5, 12] | Plant response rating, Ducksalad [5, 13] | Plant response rating, Ducksalad ([5]; Flood, 31 g ai/ha) | Wheat plant response rating [7, 14] | Plant response rating, Wheat [7, 16] | Plant response rating, Wheat [7, 17] | Plant response rating, Velvetleaf [8, 16]

Cc1nn(-c2ccc(C(F)(F)F)nc2)nc1C(=O)c1cccc(C(F)(F)F)c1 [Compound 73]
50: Plant response rating, Crabgrass, Large [2, 16]
100: Pigweed plant response rating [6, 15] | Plant response rating, Pigweed [6, 17]
10: Corn plant response rating (corn (Zea mays); [14]) | Plant response rating, Morningglory [4, 17] | Wheat plant response rating [7, 14] | Plant response rating, Wheat [7, 17] | Plant response rating, Velvetleaf [8, 17] | Barnyardgrass plant response rating [9, 14] | Foxtail, Giant plant response rating [10, 14]
70: Morningglory plant response rating [4, 15] | Pigweed plant response rating [6, 14]
85: Plant response rating, Ducksalad [5, 13]
0: Plant response rating, Barnyardgrass [1, 11] | Plant response rating, Barnyardgrass [1, 12] | Plant response rating, Barnyardgrass [1, 13] | Plant response rating, Barnyardgrass ([1]; Flood, 31 g ai/ha) | Plant response rating, Corn (corn (Zea mays); [16]) | Plant response rating, Corn (corn (Zea mays); [17]) | Plant response rating, Rice (rice (Oryza sativa); [11]) | Plant response rating, Rice (rice (Oryza sativa); [12]) | Plant response rating, Rice (rice (Oryza sativa); [13]) | Plant response rating, Rice (rice (Oryza sativa); Flood, 31 g ai/ha) | Plant response rating, Sedge, Umbrella [3, 11] | Plant response rating, Sedge, Umbrella [3, 12] | Plant response rating, Sedge, Umbrella [3, 13] | Plant response rating, Sedge, Umbrella ([3]; Flood, 31 g ai/ha) | Plant response rating, Morningglory [4, 16] | Plant response rating, Ducksalad [5, 11] | Plant response rating, Ducksalad [5, 12] | Plant response rating, Ducksalad ([5]; Flood, 31 g ai/ha) | Plant response rating, Wheat [7, 16] | Plant response rating, Velvetleaf [8, 16] | Plant response rating, Barnyardgrass [9, 16]
30: Plant response rating, Pigweed [6, 16] | Barnyardgrass plant response rating [9, 15]
90: Plant response rating, Crabgrass, Large [2, 17] | Plant response rating, Foxtail, Giant [10, 17]
20: Corn plant response rating (corn (Zea mays); [15]) | Crabgrass, Large plant response rating [2, 14] | Morningglory plant response rating [4, 14] | Wheat plant response rating [7, 15] | Velvetleaf plant response rating [8, 14]
40: Velvetleaf plant response rating [8, 15] | Plant response rating, Barnyardgrass [9, 17] | Foxtail, Giant plant response rating [10, 15]
60: Crabgrass, Large plant response rating [2, 15] | Plant response rating, Foxtail, Giant [10, 16]

Cc1nn(-c2ccc(C(F)(F)F)cc2)nc1Cc1cnn(CC(F)(F)F)c1 [Compound 51]
60: Pigweed plant response rating [6, 15]
10: Corn plant response rating (corn (Zea mays); [15]) | Crabgrass, Large plant response rating [2, 15] | Morningglory plant response rating [4, 15] | Pigweed plant response rating [6, 14] | Velvetleaf plant response rating [8, 15] | Barnyardgrass plant response rating [9, 15] | Foxtail, Giant plant response rating [10, 15] | Plant response rating, Foxtail, Giant [10, 17]
0: Plant response rating, Barnyardgrass [1, 11] | Plant response rating, Barnyardgrass [1, 13] | Corn plant response rating (corn (Zea mays); [14]) | Plant response rating, Corn (corn (Zea mays); [16]) | Plant response rating, Corn (corn (Zea mays); [17]) | Plant response rating, Rice (rice (Oryza sativa); [11]) | Plant response rating, Rice (rice (Oryza sativa); [13]) | Crabgrass, Large plant response rating [2, 14] | Plant response rating, Crabgrass, Large [2, 16] | Plant response rating, Crabgrass, Large [2, 17] | Plant response rating, Sedge, Umbrella [3, 11] | Plant response rating, Sedge, Umbrella [3, 13] | Morningglory plant response rating [4, 14] | Plant response rating, Morningglory [4, 16] | Plant response rating, Morningglory [4, 17] | Plant response rating, Ducksalad [5, 11] | Plant response rating, Ducksalad [5, 13] | Plant response rating, Pigweed [6, 16] | Plant response rating, Pigweed [6, 17] | Wheat plant response rating [7, 14] | Wheat plant response rating [7, 15] | Plant response rating, Wheat [7, 16] | Plant response rating, Wheat [7, 17] | Velvetleaf plant response rating [8, 14] | Plant response rating, Velvetleaf [8, 16] | Plant response rating, Velvetleaf [8, 17] | Barnyardgrass plant response rating [9, 14] | Plant response rating, Barnyardgrass [9, 16] | Plant response rating, Barnyardgrass [9, 17] | Foxtail, Giant plant response rating [10, 14] | Plant response rating, Foxtail, Giant [10, 16]

Cc1nn(-c2cccc(C(F)(F)F)c2)nc1Oc1cc(C(F)(F)F)ncn1 [Compound 38]
50: Crabgrass, Large plant response rating [2, 15] | Plant response rating, Crabgrass, Large [2, 16]
0: Plant response rating, Barnyardgrass [1, 11] | Plant response rating, Barnyardgrass [1, 13] | Corn plant response rating (corn (Zea mays); [14]) | Corn plant response rating (corn (Zea mays); [15]) | Plant response rating, Corn (corn (Zea mays); [16]) | Plant response rating, Corn (corn (Zea mays); [17]) | Plant response rating, Rice (rice (Oryza sativa); [11]) | Plant response rating, Rice (rice (Oryza sativa); [13]) | Plant response rating, Sedge, Umbrella [3, 11] | Plant response rating, Sedge, Umbrella [3, 13] | Morningglory plant response rating [4, 14] | Morningglory plant response rating [4, 15] | Plant response rating, Morningglory [4, 16] | Plant response rating, Morningglory [4, 17] | Plant response rating, Ducksalad [5, 11] | Plant response rating, Ducksalad [5, 13] | Pigweed plant response rating [6, 14] | Plant response rating, Pigweed [6, 16] | Wheat plant response rating [7, 14] | Wheat plant response rating [7, 15] | Plant response rating, Wheat [7, 16] | Plant response rating, Wheat [7, 17] | Velvetleaf plant response rating [8, 14] | Plant response rating, Velvetleaf [8, 16] | Plant response rating, Velvetleaf [8, 17] | Barnyardgrass plant response rating [9, 14] | Barnyardgrass plant response rating [9, 15] | Plant response rating, Barnyardgrass [9, 16] | Plant response rating, Barnyardgrass [9, 17] | Foxtail, Giant plant response rating [10, 14] | Foxtail, Giant plant response rating [10, 15] | Plant response rating, Foxtail, Giant [10, 16]
10: Plant response rating, Pigweed [6, 17]
60: Plant response rating, Crabgrass, Large [2, 17] | Velvetleaf plant response rating [8, 15]
30: Pigweed plant response rating [6, 15]
20: Crabgrass, Large plant response rating [2, 14] | Plant response rating, Foxtail, Giant [10, 17]
